Results as given in US20130324412A1, “N-ALKOXYAMIDES OF 6-(SUBSTITUTED PHENYL)-4-AMINOPICOLINATES AND 2-(SUBSTITUTED PHENYL)-6-AMINO-4-PYRIMIDINECARBOXYLATES AND THEIR USE AS SELECTIVE HERBICIDES FOR CROPS” (DOW AGROSCIENCES LLC, priority 2009, published 2013).

Tests used:
Assay type in all cases: in vivo
[1] = tested on: pigweed, redroot (Amaranthus retroflexus); test: Postemergence herbicidal activity in corn, redroot pigweed; details: corn test, visual rating after 21 d, probit analysis, dose to kill or control 80 percent
Experimental: (§1) Seeds of corn and the desired weed species were planted in Sun Gro MetroMix 360 planting mixture, which typically has a pH of 6.0 to 6.8 and an organic matter content of about 30 percent, in plastic pots with a surface area of 95 cm^2. When required to ensure good germination and healthy plants, a fungicide treatment and/or other chemical or physical treatment was applied. The plants were grown for 7-21 d in a greenhouse with an approximate 15-h photoperiod which was maintained at about 23-29° C. during the day and 22-28° C. during the night. Nutrients and water were added on a regular basis and supplemental lighting was provided with overhead metal halide 1000-Watt lamps as necessary. The corn plants were utilized for testing when they reached the second true leaf stage. The weed species were utilized at the first or second true leaf stage.
(§2) A weighed amount, determined by the highest rate to be tested, of each test compound was dissolved in 4 mL of a 97:3 v/v mixture of acetone and DMSO to obtain concentrated stock solutions. […] The concentrated stock solutions obtained were diluted with 20 mL of an aqueous mixture containing acetone, water, isopropyl alcohol, DMSO, Atplus 411F crop oil concentrate, and Triton X-155 surfactant in a 48.5:39:10:1.5:1.0:0.02 v/v ratio to obtain spray solutions containing the highest application rates. […]
(§3) The treated plants and control plants were placed in a greenhouse as described above and watered by sub-irrigation to prevent wash-off of the test compounds. After 21 d, the condition of the test plants as compared with that of the untreated plants was determined visually and scored on a scale of 0 to 100 percent where 0 corresponds to no injury and 100 corresponds to complete kill. […]

[2] = tested on: wild buckwheat (Polygonum convululus); test: Postemergence herbicidal activity in corn, wild buckwheat; details: corn test, visual rating after 21 d, probit analysis, dose to kill or control 80 percent
Experimental: as §1, §2, §3

[3] = tested on: lambsquarters (Chenopodium album); test: Postemergence herbicidal activity in corn, lambsquarters; details: corn test, visual rating after 21 d, probit analysis, dose to kill or control 80 percent
Experimental: as §1, §2, §3

[4] = tested on: lambsquarters (Chenopodium album); test: General postemergence herbicidal activity, lambsquarters; details: post-emergence, 336 h, postemergence, after 14 d, 0 = no injury, 100 = complete kill, read-out: CHEAL % Visual Injury; for pest or weed control at 140 g/ha: 140 g ai/ha; for pest or weed control at 70 g/ha: 70 g ai/ha
Outline: (§4)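 Greenhouse plants at first to second true leaf stage sprayed overhead at 187 L/ha in acetone/DMSO with crop oil concentrate and surfactant, at a high rate plus ½× to 1/16× serial dilutions. Injury rated visually after 14 d against solvent-blank controls, 0 (none) to 100% (complete kill).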

corn (Zea mays) [5] = test: General postemergence herbicidal activity, corn; details: post-emergence, 336 h, postemergence, after 14 d, 0 = no injury, 100 = complete kill, read-out: ZEAMX % Visual Injury; for plant injury at 140 g/ha: 140 g ai/ha; for plant injury at 70 g/ha: 70 g ai/ha
Outline: as §4

[6] = tested on: sicklepod (Casia obtusifolia); test: Postemergence herbicidal activity in corn, sicklepod; details: corn test, visual rating after 21 d, probit analysis, dose to kill or control 80 percent
Experimental: as §1, §2, §3

corn (Zea mays) [7] = test: Postemergence herbicidal activity in corn, crop; details: visual rating after 21 d, probit analysis, dose to kill or control 20 percent
Experimental: as §1, §2, §3

[8] = tested on: wild buckwheat (Polygonum convululus); test: General postemergence herbicidal activity, wild buckwheat; details: post-emergence, 336 h, postemergence, after 14 d, 0 = no injury, 100 = complete kill, read-out: POLCO % Visual Injury; for pest or weed control at 140 g/ha: 140 g ai/ha; for pest or weed control at 70 g/ha: 70 g ai/ha
Outline: as §4

[9] = tested on: velvetleaf (Abutilon theophrasti); test: General postemergence herbicidal activity, velvetleaf; details: post-emergence, 336 h, postemergence, after 14 d, 0 = no injury, 100 = complete kill, read-out: ABUTH % Visual Injury; for pest or weed control at 140 g/ha: 140 g ai/ha; for pest or weed control at 70 g/ha: 70 g ai/ha
Outline: as §4

[10] = tested on: purple deadnettle (Lamium purpureum); test: Postemergence herbicidal activity in sugar beet, purple deadnettle; design: unit not given here; details: sugar beet test, visual rating after 21 d, probit analysis, dose to kill or control 80 percent
Experimental: as §1, with “sugar beet” for “corn”, “MetroMix®” for “MetroMix”, “15-28” for “7-21”, “third or fourth” for “second”, “fourth” for “first or second”
(§5) A weighed amount, determined by the highest rate to be tested, of each test compound was dissolved in 4 mL of a 97:3 v/v mixture of acetone and DMSO to obtain concentrated stock solutions. […] The concentrated stock solutions obtained were diluted with 20 mL of an aqueous mixture containing acetone, water and Agri-Dex crop oil concentrate, in a 16.7:82.1:1.25 v/v ratio to obtain spray solutions containing the highest application rates. Additional application rates were obtained by serial dilution of 12 mL of the high rate solution into a solution containing 2 mL of 97:3 v/v mixture of acetone and DMSO and 10 mL of an aqueous mixture containing acetone, water and Agri-Dex crop oil concentrate, in a 16.7:82.1:1.25 v/v ratio to obtain ½×, ¼×, ⅛× and 1/16× rates of the high rate. Compound requirements are based upon a 12 mL application volume at a rate of 187 L/ha. Formulated compounds were applied to the plant material with an overhead Mandel track sprayer equipped with 8002E nozzles calibrated to deliver 187 L/ha over an application area of 0.503 m^2 at a spray height of 18 inches (43 cm) above the average plant canopy height. Control plants were sprayed in the same manner with the solvent blank.
as §3

[11] = tested on: purple deadnettle (Lamium purpureum); test: Postemergence herbicidal activity in oilseed rape (canola), purple deadnettle; design: unit not given here; details: oilseed rape (canola) test, visual rating after 21 d, probit analysis, dose to kill or control 80 percent
Experimental: as §1, with “oilseed rape (canola)” for “corn”, “MetroMix®” for “MetroMix”, “15-28” for “7-21”, “third or fourth” for “second”, “fourth” for “first or second”
as §5
(§6) The treated plants and control plants were placed in a greenhouse as described above and watered by sub-irrigation to prevent wash-off of the test compounds. After 21 d, the condition of the test plants as compared with that of the untreated plants was determined visually and scored on a scale of 0 to 100 percent where 0 corresponds to no injury and 100 corresponds to complete kill.
(§7) By applying the well-accepted probit analysis as described by J. Berkson in Journal of the American Statistical Society 1953, 48, 565, and by D. Finney in “Probit Analysis” Cambridge University Press (1952), the above data can be used to calculate GR20 and GR80 values, which are defined as growth reduction factors that correspond to the effective dose of herbicide required to kill or control 20 percent or 80 percent, respectively, of a target plant.

[12] = tested on: winter oilseed rape (canola) (Brassica napus); test: Postemergence herbicidal activity in oilseed rape (canola), crop; design: unit not given here; details: visual rating after 21 d, probit analysis, dose to kill or control 20 percent
Experimental: as §1, with “oilseed rape (canola)” for “corn”, “MetroMix®” for “MetroMix”, “15-28” for “7-21”, “third or fourth” for “second”, “fourth” for “first or second”
as §5, §6, §7

[13] = tested on: lambsquarters (Chenopodium album); test: Postemergence herbicidal activity in oilseed rape (canola), lambsquarters; design: unit: g ai/ha; details: oilseed rape (canola) test, visual rating after 21 d, probit analysis, dose to kill or control 80 percent
Experimental: as §1, with “oilseed rape (canola)” for “corn”, “MetroMix®” for “MetroMix”, “15-28” for “7-21”, “third or fourth” for “second”, “fourth” for “first or second”
as §5, §6, §7

[14] = tested on: sugar beet (Beta vulgaris); test: Postemergence herbicidal activity in sugar beet, crop; design: unit not given here; details: visual rating after 21 d, probit analysis, dose to kill or control 20 percent
Experimental: as §1, with “sugar beet” for “corn”, “MetroMix®” for “MetroMix”, “15-28” for “7-21”, “third or fourth” for “second”, “fourth” for “first or second”
as §5, §6, §7

[15] = tested on: lambsquarters (Chenopodium album); test: Postemergence herbicidal activity in sugar beet, lambsquarters; design: unit not given here; details: sugar beet test, visual rating after 21 d, probit analysis, dose to kill or control 80 percent
Experimental: as §1, with “sugar beet” for “corn”, “MetroMix®” for “MetroMix”, “15-28” for “7-21”, “third or fourth” for “second”, “fourth” for “first or second”
as §5, §6, §7

SMILES	pest or weed control at 140 g/ha [4] [%]	plant injury at 140 g/ha (corn (Zea mays) [5]) [%]	pest or weed control at 140 g/ha [8] [%]	pest or weed control at 140 g/ha [9] [%]	LAMPU GR80 [10]	LAMPU GR80 [11]	BRSNW GR20 [12]	CHEAL GR80 [13]	BEAVA GR20 [14]	CHEAL GR80 [15]	pest or weed control at 70 g/ha [4] [%]	plant injury at 70 g/ha (corn (Zea mays) [5]) [%]	pest or weed control at 70 g/ha [8] [%]	pest or weed control at 70 g/ha [9] [%]	also measured
C=CCONC(=O)c1nc(-c2ccc(Cl)c(OC)c2F)cc(N)c1Cl [Compound 3, N-(2-Propenyloxy)-4-amino-3-chloro-6-(4-chloro-2-fluoro-3-methoxyphenyl)picolinamide]	100	0	100	100											AMARE GR80 [1]: 5 g ai/ha; POLCO GR80 [2]: <4 g ai/ha; CHEAL GR80 [3]: <4 g ai/ha; CASOB GR80 [6]: 5 g ai/ha; ZEAMX GR20 (corn (Zea mays) [7]): >35 g ai/ha
CCONC(=O)c1nc(-c2ccc(Cl)c(OC)c2F)cc(N)c1Cl [Compound 4, 4-Amino-3-chloro-6-(4-chloro-2-fluoro-3-methoxyphenyl)-N-ethoxypicolinamide]	100	0	100	100	<4.38	<4.38	>140	11	>140	<8.75					
C/C=C/CONC(=O)c1nc(-c2ccc(Cl)c(OC)c2F)cc(N)c1Cl [Compound 30, (E)-4-Amino-N-(2-butenyloxy)-3-chloro-6-(4-chloro-2-fluoro-3-methoxy-phenyl)picolinamide]					<4.38	<4.38	>70	<8.75	>140	<8.75	100	50	100	100	
COc1c(Cl)ccc(-c2cc(N)c(Cl)c(C(=O)NOC/C=C/Cl)n2)c1F [Compound 31, (E)-4-Amino-3-chloro-6-(4-chloro-2-fluoro-3-methoxyphenyl)-N-(3-chloro-2-propenyl-oxy)picolinamide]									>140	<8.75	100	5	100	100	
C=CCONC(=O)c1nc(-c2ccc(Cl)c(OC)c2F)c(F)c(N)c1Cl [Compound 39, N-(2-Propenyloxy)-4-amino-3-chloro-6-(4-chloro-2-fluoro-3-methoxyphenyl)-5-fluoropicolinamide]						<8.75	>70	49							pest or weed control at 17.5 g/ha ([4]; 17.5 g ai/ha): 100%; plant injury at 17.5 g/ha (corn (Zea mays) [5]; 17.5 g ai/ha): 45%; pest or weed control at 17.5 g/ha ([8]; 17.5 g ai/ha): 100%; pest or weed control at 17.5 g/ha ([9]; 17.5 g ai/ha): 100%
COc1c(Cl)ccc(-c2cc(N)c(Cl)c(C(=O)NOCc3cnc(Cl)s3)n2)c1F [Compound 41, 4-Amino-3-chloro-6-(4-chloro-2-fluoro-3-methoxyphenyl)-N-((2-chlorothiazol-5-yl)-methoxy)picolinamide]					<4.38				136	30	100	5	100	100	
COc1c(Cl)ccc(-c2nc(C(=O)NOC3CCCCO3)c(Cl)c(N)c2F)c1F (centres unmarked) [Compound 48, 4-Amino-3-chloro-6-(4-chloro-2-fluoro-3-methoxyphenyl)-5-fluoro-N-(tetrahydro-2H-pyran-2-yloxy)picolinamide]	100	0	100	100		<4.38	>70	18							
